Measured values published in patent publication US12167995B2, “[((1R,2S,5R)-2-isopropyl-5-methyl-cyclohexanecarbonyl)-amino]-acetic acid isopropyl ester for treatment of chronic cough” (AXALBION SA, priority 2019, dated 2024).
“Also recorded” adds a separate entry of the source.

What was measured:
[1] = tested on: refractory chronic cough (RCC); experiment: Clinical Trial 2: Global Rating of Change Scale (GRCS); type: in vivo, human
Source text: The GRCS was used by subjects to assess their overall status for the specified periods (the 4-hour period following dose; and the 24-hour period following dose). It consisted of a […] scale ranging from ‘a very great deal better’ to ‘a very great deal worse’.

[2] = tested on: 87 primary molecular targets including 13 enzyme and 74 binding assays; experiment: Off-target pharmacology study (SafetyScreen87 assay); conditions: 100 μM AX-8
Source text: In addition, an off-target pharmacology study (SafetyScreen87 assay by Eurofins Pharma Discovery Services) has been performed. This assay package consists of 87 primary molecular targets including 13 enzyme and 74 binding assays, representing potential safety issues.

[3] = tested on: isolated guinea pig vagal nerves; experiment: Capsaicin-induced depolarization on isolated guinea pig vagal nerves (grease-gap recording)
Protocol: The vagal nerve is the main afferent pathway of the cough reflex loop. Therefore, the ability—and dependence on TRPM8—of AX-8 to inhibit the capsaicin-induced depolarization on isolated guinea pig vagal nerves was assessed. The tissue was assayed using an O2/CO2 gassed, grease-gap recording system as previously described (see, e.g., Birrell et al., 2009). Briefly, after the tissue has stabilised, it was exposed to a challenge (capsaicin, 1 μM, TRPV1 agonist for 2 minutes), then washed. This was then repeated to confirm the basal response. After washing, the tissue was incubated with vehicle or AX-8 (10 nM-1 mM) for 10 minutes. Following this, the tissue was re-challenged with capsaicin (in the presence of vehicle or AX-8).
Where the TRPM8 antagonist PF-05105679 (PF, 10 μM) was used, following the two reproducible responses to capsaicin, the nerve was incubated with the TRPM8 antagonist or vehicle (0.1% DMSO) for 10 minutes, prior to incubation with AX-8 or vehicle for 10 minutes. The nerve was then restimulated with capsaicin in the presence of PF/Vehicle and AX-8/Vehicle and the percentage of inhibition of the original response calculated. Following a wash period, the nerve was then restimulated with capsaicin to determine viability. The level of depolarization was recorded at each phase. The data were recorded as actual depolarisation levels and as a percentage inhibition (caused by the vehicle or test compound) of the mean of the initial, control recordings.

[4] = tested on: refractory chronic cough (RCC); experiment: Clinical Trial 2: objective cough frequency (VitaloJAK 24-hour recording) in RCC patients; type: in vivo, human; design: Cough frequency, Ln Mean (SE), Treatment, 8 hours (GEE) / Cough frequency, Ln Mean (SE), Treatment, 4 hours (GEE) / Cough frequency, Ln Mean (SE), Treatment, 24 hours (GEE): unit not given here
Protocol: The primary objective of the study was to assess the effectiveness of AX-8 (the study drug) for the treatment of RCC and associated upper airway symptoms after one dose of treatment (an orally disintegrating tablet (ODT) having 5 mg AX-8, administered orally and dissolved on the tongue) in reducing awake cough frequency compared to baseline, for the purpose of planning a future randomized controlled trial. Subjects took a single orally disintegrating tablet (ODT) with 5 mg AX-8 in the morning on the first day of the treatment period (Day 1). This Investigational Medical Product (IMP) was let to dissolve on the tongue. […] Objective cough frequency was measured as 24-hour sound recordings using a custom-built digital recording device (VitaloJAK, Vitalograph, Ltd). VitaloJAK™ is a semi-automated 24-hour ambulatory cough monitoring system (Vitalograph; Buckinghamshire, England) operating in a manner which completely replicates routine practice. The 24-hour recordings are compressed using custom designed compression software, using an algorithm. The VitaloJAK™ is a reliable, robust and efficient tool for the objective measurement of cough frequency. Importantly it reduces 24-hour recordings by up to 98% whilst preserving close to 100% of recorded cough sounds. It is worn like a Holter monitor, with a single sensor affixed to the patient's chest wall. An optional second channel via a conventional microphone (worn, for example, on the patient's shirt) allows quality assurance with human intervention. The device itself is attached on the trousers, skirt, etc. The 24-hour cough frequency (coughs per hour) for a specified visit was calculated as: 24-hour cough frequency=(total number of cough events during the monitoring period (24-hour interval))/24. Awake cough frequency=(total number of cough events during the monitoring period (24-hour interval) while the subject was awake)/(total duration (in hours) during the monitoring period (24-hour interval) that the subject was awake). Percent change in awake cough frequency=[(Change from baseline in awake cough frequency×100)/(Baseline awake cough frequency)]. The proportion of participants with ≥30% of reduction from baseline in awake cough frequency is the number of participants with ≤−30% change in awake cough frequency divided by the total number of participants with available data. For awake and asleep cough frequencies, baseline and treatment data were compared using Wilcoxon signed rank test due to the skewed nature of the data. For 24 hour-, 8 hour-, and 4 hour-cough frequencies, baseline and treatment data were compared using General Estimating Equations (GEE) models. Prior to analysis, these cough count data were natural log (Ln) transformed in order to normalise the distribution of the data. As some individual hourly cough counts were zero, 0.1 was added to all values prior to transformation.

[5] = single 5 mg AX-8 ODT, treatment vs baseline

In the case of `CC(C)OC(=O)CNC(=O)[C@@H]1C[C@H](C)CC[C@H]1C(C)C` [AX-8, [((1R,2S,5R)-2-isopropyl-5-methyl-cyclohexanecarbonyl)-amino]-acetic acid isopropyl ester], the “GRCS Cough Frequency: patients rating about the same, n (%)” value ([1]; 4 hours after treatment, n=12) is reported as 7 (58.3%), the “GRCS Cough Frequency: patients rating better, n (%)” value ([1]; 4 hours after treatment, n=12) is reported as 4 (33.3%) and the “GRCS Cough Frequency: patients rating worse, n (%)” value ([1]; 4 hours after treatment, n=12) is reported as 1 (8.3%). For the same compound, the “GRCS Cough Severity: patients rating about the same, n (%)” value ([1]; 4 hours after treatment, n=12) was 6 (50%), the “GRCS Cough Severity: patients rating better, n (%)” value ([1]; 4 hours after treatment, n=12) was 5 (41.7%) and the “GRCS Cough Severity: patients rating worse, n (%)” value ([1]; 4 hours after treatment, n=12) was 1 (8.3%). The “GRCS Cough Frequency: patients rating about the same, n (%)” value ([1]; 24 hours after treatment, n=11) was 6 (54.5%), the “GRCS Cough Frequency: patients rating better, n (%)” value ([1]; 24 hours after treatment, n=11) was 4 (36.4%) and the “GRCS Cough Frequency: patients rating worse, n (%)” value ([1]; 24 hours after treatment, n=11) was 1 (9.1%). For the same compound, the “GRCS Cough Severity: patients rating about the same, n (%)” value ([1]; 24 hours after treatment, n=11) was 6 (54.5%), the “GRCS Cough Severity: patients rating better, n (%)” value ([1]; 24 hours after treatment, n=11) was 4 (36.4%) and the “GRCS Cough Severity: patients rating worse, n (%)” value ([1]; 24 hours after treatment, n=11) was 1 (9.1%). The “responses in SafetyScreen87 off-target panel” value [2] was “No significant responses were observed”, the “inhibition of the capsaicin-induced response in the presence of TRPM8 antagonist PF-05105679” value ([3]; AX-8 1 μM, PF-05105679 10 μM pre-incubated 10 min, n=4) was “suppressed by pre-application of the TRPM8 antagonist PF-05105679; also recorded: blocked by the selective TRPM8 inhibitor PF-05105679” and the “inhibition of the capsaicin-induced response (maximum)” value ([3]; capsaicin 1 μM, AX-8 10 nM-1 mM, 10 min incubation, n=3) was “up to 80%”. For the same compound, the “inhibition of the capsaicin-induced response versus concentration” value ([3]; capsaicin 1 μM, n=3) was “blocked in a dose-dependent manner”, the “subjects with ≥30% reduction in 24-hour cough frequency per hour” value ([4]; 4/12 subjects) was 33.3% and the “subjects with ≥30% reduction in awake cough frequency per hour” value ([4]; 4/12 subjects) was 33.3%. For the same compound, the “subjects with ≥30% reduction in 4-hour cough frequency per hour” value ([4]; 5/12 subjects) was 41.7%, the “subjects with ≥30% reduction in 8-hour cough frequency per hour” value ([4]; 7/12 subjects) was 58.3% and the “Treatment ratio, 24 hours (GEE)” value ([4]; 95% CI −0.53 to 0.20, p=0.368) was −0.166. The “reduction in cough frequency during sleep” value ([4]; from 7.1 to 3.7, may not be statistically significant) was 48%, the “reduction in cough frequency during waking hours” value ([4]; from 64.1 to 54.8) was 14.5% and the “Cough frequency, Ln Mean (SE), Treatment, 24 hours (GEE)” value ([4]; natural log transformed, 0.1 added, baseline 2.87 (0.19)) was 2.70 (0.33). The “Cough frequency, Ln Mean (SE), Treatment, 8 hours (GEE)” value ([4]; natural log transformed, 0.1 added, baseline 3.72 (0.22)) was 3.26 (0.39), the “Cough frequency, Ln Mean (SE), Treatment, 4 hours (GEE)” value ([4]; natural log transformed, 0.1 added, baseline 3.92 (0.19)) was 3.38 (0.39) and the “Treatment ratio (95% CI), 8 hours (GEE)” value ([4]; p=0.033) was −0.461 (−0.88 to −0.04). For the same compound, the “Treatment ratio (95% CI), 4 hours (GEE)” value ([4]; p=0.047) was −0.54 (−1.08 to −0.01), the “Cough frequency, Median, Treatment, Asleep” value ([4]; single 5 mg AX-8 ODT, n=12, baseline 7.1, p=0.272 Wilcoxon) was 3.7 (0.6-17.5) coughs/hour and the “Cough frequency, Median, Treatment, 24 hours” value ([4]; single 5 mg AX-8 ODT, n=12, baseline 48.1) was 44.3 coughs/hour. For the same compound, the “Cough frequency, Median, Treatment, Awake” value ([4]; single 5 mg AX-8 ODT, n=12, baseline 64.1, p=0.034 Wilcoxon) was 54.8 (16.4-79.5) coughs/hour, the “Cough frequency, Median, Treatment, 4 hours” value ([4]; single 5 mg AX-8 ODT, n=12, baseline 71.0) was 53.4 coughs/hour and the “Cough frequency, Median, Treatment, 8 hours” value ([4]; single 5 mg AX-8 ODT, n=12, baseline 75.5) was 45.4 coughs/hour. For the same compound, the “Cough frequency, Change of median, 4 hours” value [4, 5] was −24.8%, the “Cough frequency, Change of median, 8 hours” value [4, 5] was −39.9% and the “Cough frequency, Change of median, 24 hours” value [4, 5] was −7.90%. For the same compound, the “Cough frequency, Change of median, Asleep” value [4, 5] was −47.9%, the “Cough frequency, Change of median, Awake” value [4, 5] was −14.5% and the “Percentage Change, 8 hours (GEE)” value ([4]; treatment vs baseline, p=0.033) was −36.9%. The “Percentage Change, 4 hours (GEE)” value ([4]; treatment vs baseline, p=0.047) was −42.0% and the “Percentage Change, 24 hours (GEE)” value ([4]; treatment vs baseline, p=0.368) was −15.3%.
